Entries after “also recorded” stand apart in the source; their conditions may differ. Where two headings read alike, the source gives them in different places.
What was measured:
[1] = adults, PO bid, ref [6], [60]–[62], cited from earlier work
[2] = system: relapsed or refractory solid tumors; experiment: Pediatric phase 1 trial: tumor response; type: in vivo, human
[3] = type: in vivo, human; conditions: for AUC(0-t) / Cmax: median (range)
[4] = set-up: species or system human; conditions: in vivo

O=C1NC(=O)[C@@H](c2cn3c4c(cccc24)CCC3)[C@@H]1c1c[nH]c2ccccc12 [Tivantinib]
maximum tolerated dose (MTD) ([1]; amorphous form (approximately 170 mg/m^2/dose)): 300 mg | maximum tolerated dose (MTD) ([1]; crystalline form (approximately 210 mg/m^2/dose)): 360 mg | objective responses ([2]; 32 patients evaluable for response, single agent): not observed; also recorded: no objective responses | duration of stable disease ([2]; patient with neuroblastoma, 28-day cycles): 8 cycles | Tmax, median (range) ([3]; Powder sprinkled on food, 240 mg/m^2 (n=9), Day 1 Cycle 1): 2.0 (1.0–6.0) h | inter-patient variability in Cmax and AUC0–8h ([3]; across all dose levels): 20 fold | AUC(0-t) ([3]; human, plasma, oral, 170 mg/m2, AUC0–8h, Capsule, 170 mg/m^2 (n=6), Day 1 Cycle 1, with food): 3820 ng·h/mL | Tmax ([3]; human, plasma, oral, 200 mg/m2): 4 h | AUC(0-t) ([3]; human, plasma, oral, 200 mg/m2, AUC0–8h, Capsule, 200 mg/m^2 (n=7), Day 1 Cycle 1, with food): 9470 ng·h/mL | Cmax ([3]; human, plasma, oral, 200 mg/m2, Cmax, Capsule, 200 mg/m^2 (n=7), Day 1 Cycle 1, with food): 2180 ng/mL | Tmax ([3]; human, plasma, oral, 240 mg/m2): 2 h | AUC(0-t) ([3]; human, plasma, oral, 240 mg/m2, AUC0–8h, Capsule, 240 mg/m^2 (n=13), Day 1 Cycle 1, with food): 5630 ng·h/mL | AUC(0-t) ([3]; human, plasma, oral, 240 mg/m2, AUC0–8h, Powder sprinkled on food, 240 mg/m^2 (n=9), Day 1 Cycle 1): 7300 ng·h/mL | Cmax ([3]; human, plasma, oral, 240 mg/m2, Cmax, Capsule, 240 mg/m^2 (n=13), Day 1 Cycle 1, with food): 1300 ng/mL | Cmax ([3]; human, plasma, oral, 240 mg/m2, Cmax, Powder sprinkled on food, 240 mg/m^2 (n=9), Day 1 Cycle 1): 1530 ng/mL | half-life ([3]; human, plasma, oral, apparent elimination half-life, median, evaluable in 29 of 35 patients, range 1.2 – 18.0 hrs): 2.7 h | Tmax ([3]; human, plasma, po): ~2 h | Anemia, maximum Gr. 1 (number of patients) ([4]; human): 4 | Grade 1 or 2 anemia (number) ([4]; human): 12 | Grade 1 or 2 fatigue (number) ([4]; human): 8 | Grade 1 or 2 hypoalbuminemia (number) ([4]; human): 4 | Grade 1 or 2 leukopenia (number) ([4]; human): 5 | Grade 1 or 2 lymphopenia (number) ([4]; human): 8 | Grade 1 or 2 nausea (number) ([4]; human): 5 | Grade 1 or 2 neutropenia (number) ([4]; human): 5 | Grade 1 or 2 thrombocytopenia (number) ([4]; human): 3 | Grade 1 or 2 vomiting (number) ([4]; human): 5 | Hemoglobin increased, maximum Gr. 1 (number of patients) ([4]; human): 1 | Lymphocyte count decreased, maximum Gr. 1 (number of patients) ([4]; human): 2 | Lymphocyte count decreased, maximum Gr. 2 (number of patients) ([4]; human): 2 | Lymphocyte count increased, maximum Gr. 2 (number of patients) ([4]; human): 1 | Neutrophil count decreased, maximum Gr. 2 (number of patients) ([4]; human): 2 | Platelet count decreased, maximum Gr. 1 (number of patients) ([4]; human): 2 | White blood cell decreased, maximum Gr. 1 (number of patients) ([4]; human): 3 | grade 3 anemia (number) ([4]; human): 1 | grade 3 lymphopenia (number) ([4]; human): 2 | recommended phase 2 dose (RP2D) ([4]; human): 240 mg/m^2/dose | Anemia, maximum Gr. 1 (number of patients) ([4]; human, 1 cycle): 9 | Anemia, maximum Gr. 2 (number of patients) ([4]; human, 1 cycle): 3 | Anemia, maximum Gr. 3 (number of patients) ([4]; human, 1 cycle): 1 | Fatigue, maximum Gr. 1 (number of patients) ([4]; human, 1 cycle): 5 | Fatigue, maximum Gr. 2 (number of patients) ([4]; human, 1 cycle): 3 | Hypoalbuminemia, maximum Gr. 1 (number of patients) ([4]; human, 1 cycle): 2 | Hypoalbuminemia, maximum Gr. 2 (number of patients) ([4]; human, 1 cycle): 2 | Lymphocyte count decreased, maximum Gr. 1 (number of patients) ([4]; human, 1 cycle): 3 | Lymphocyte count decreased, maximum Gr. 2 (number of patients) ([4]; human, 1 cycle): 5 | Lymphocyte count decreased, maximum Gr. 3 (number of patients) ([4]; human, 1 cycle): 2 | Nausea, maximum Gr. 1 (number of patients) ([4]; human, 1 cycle): 4 | Nausea, maximum Gr. 2 (number of patients) ([4]; human, 1 cycle): 1 | Neutrophil count decreased, maximum Gr. 1 (number of patients) ([4]; human, 1 cycle): 3 | Neutrophil count decreased, maximum Gr. 2 (number of patients) ([4]; human, 1 cycle): 2 | Platelet count decreased, maximum Gr. 1 (number of patients) ([4]; human, 1 cycle): 3 | Vomiting, maximum Gr. 1 (number of patients) ([4]; human, 1 cycle): 4 | Vomiting, maximum Gr. 2 (number of patients) ([4]; human, 1 cycle): 1 | White blood cell decreased, maximum Gr. 1 (number of patients) ([4]; human, 1 cycle): 5 | White blood cell decreased, maximum Gr. 2 (number of patients) ([4]; human, 1 cycle): 2 | Sinus bradycardia [4]: not readily apparent | tolerability [4]: well tolerated

— PMC5657151 (Pediatric blood & cancer, 2017)
